Laboratory results as given in patent US20040122089A1, “Novel eicosanoid analgesics” (priority 2001, published 2004).
Like-named read-outs stand apart in the source and are kept apart here.

Tests used:
[1] = test system: anandamide membrane transporter (AMT); assay type: cell-based, rat; conditions: [14C]AEA uptake, RBL-2H3 cells
Procedure: (§1) The effect of compounds on the enzymatic hydrolysis of [^14C] AEA (6 μM) was studied by using membranes prepared from N18TG2 cells incubated with increasing concentrations of compounds in 50 mM Tris-HCL, pH 9, for 30 min at 37° C. [^14C] Ethanolamine produced from [^14C] AEA hydrolysis was quantified by scintillation spectroscopy and used to measure fatty acid amide hydrolase (FAAH) activity. The effect of compounds on the uptake of AEA by RBL-2H3 cells was studied with a procedure analogous to that described in Melck, ibid., and modified as described in Hilliard et al., J. Neurochem. 69:631-638 (1997). Cells were incubated with [^14C] AEA (4μM) for 5 min. at 37° C., in the presence or absence of varying concentrations of the inhibitors. Residual [1^4C] AEA in the incubation media after extraction with CHCl3/CH30H (2:1 by volume) was used as a measure of the AEA that was taken up by cells.
In consideration of the potent inhibition of the AMT previously observed with arvanil and its derivatives (see Melck, ibid), the seven compounds were also tested for their inhibitory effect on [^4C] […] Thus, the results in Table 1 confirm the existence of a partial overlap between the ligand recognition properties of VR1 receptors and the AMT (14.24).

CB2 receptors = molecular target: T1, CB2 receptors (Rattus norvegicus, UniProt Q9QZN9); assay: CB2 binding, displacement of [3H]WIN55,212-2 from rat spleen membranes
T1 construct: rat spleen membranes, which contain mostly CB2 receptors; from tissue; host or cells: rat spleen membranes
T1 sequence (Q9QZN9 1-360): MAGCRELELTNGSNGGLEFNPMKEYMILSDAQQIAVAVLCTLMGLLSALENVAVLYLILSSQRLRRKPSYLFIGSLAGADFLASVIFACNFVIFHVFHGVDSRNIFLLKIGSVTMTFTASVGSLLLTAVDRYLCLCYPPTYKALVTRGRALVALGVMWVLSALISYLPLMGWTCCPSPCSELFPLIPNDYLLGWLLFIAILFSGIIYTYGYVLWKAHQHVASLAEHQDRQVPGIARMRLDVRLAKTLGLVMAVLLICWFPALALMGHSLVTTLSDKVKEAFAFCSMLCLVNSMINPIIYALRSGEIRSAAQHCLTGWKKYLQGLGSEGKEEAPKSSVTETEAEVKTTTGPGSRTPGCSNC
Procedure: (§2) For CB1 receptor binding, [^3H]CP-55,940 (Kd=[…]) was incubated with P2 membranes from whole rat brains as described in Compton et al., J. Pharm. Exp. Ther. 265:218-226 (1993). Displacement curves were generated by incubating drugs with 1 nM of [^3H]CP-55,940. The assays were performed in triplicate, and the results represent the combined data from three individual experiments. A separate set of experiments were conducted in which phenylmthylsulfonylfluoride (PMSF) was added at a concentration of 100 μm in order to prevent possible metabolism of the analogs. CB2 binding assays were performed as described in Melek et al., ibid. In all cases, Ki values were calculated applying the Cheng-Prusoff equation to the IC50 values (obtained by GraphPad) for the displacement of the bound radioligand by increasing concentrations of the test compounds.
(§3) In Table 1, affinity for CB1 and CB2 receptors was measured in displacement assays carried out using rat brain or spleen membranes and [^3H]CP 55,940 or […], respectively. Potency at human VR1 was established by measuring the stimulatory activity of the compounds on the Ca^2+ intracellular concentration in HEK cells transfected with cDNA encoding the human VR1 receptor. Efficacy at VR1 was measured by expressing the effect of a maximal concentration of each compound (usually 10 μM) as percent of the maximal possible effect obtained with 4 μM ionomycin. Data are means ±SEM of at least n=3 separate determinations. *Ki was determined in the presence of PMSF.
The hydroxy analog is much less CB1 vs. CB2 selective in both series.

human VR1 receptor = human VR1 receptor (Homo sapiens, UniProt Q8NER1); assay: Ca2+ influx (Fluo-3) in HEK-hVR1 cells (Example 2); assay type: cell-based; parameters: expressed in transfected cells; host or cells: HEK 293 cells (HEK-hVR1); conditions: for VR1 efficacy: maximal concentration (usually 10 μM), percent of effect of 4 μM ionomycin
Procedure: N18TG2 and RBL-2H3 cells were grown as described in Melck et al, Bioch. Biophys. Res. Commun. 262:275-284 (1999). Ionomycin was purchased from Sigma. DMH-arvanil, and six substituted dimethylpentyl (DMP) derivatives of arvanil and met-AEA were synthesized as described in Example 1.
HEK-hVR1 cells were prepared and loaded as described in De Petrocellis, et al., FEBS Lett. 483:52-56 (2000). Experiments were carried out by measuring fluorescence at 25° C. […] Capsazepine (1-5 μM) was added 30 minu. Before the test compounds.
as §3

[2] = molecular target: T2, fatty acid amide hydrolase (FAAH) (Mus musculus, UniProt O08914); assay: [14C]AEA hydrolysis by N18TG2 cell membranes; assay type: biochemical
T2 construct: membranes prepared from N18TG2 cells; endogenous in cells; host or cells: N18TG2 cell membranes
T2 sequence (O08914 1-579): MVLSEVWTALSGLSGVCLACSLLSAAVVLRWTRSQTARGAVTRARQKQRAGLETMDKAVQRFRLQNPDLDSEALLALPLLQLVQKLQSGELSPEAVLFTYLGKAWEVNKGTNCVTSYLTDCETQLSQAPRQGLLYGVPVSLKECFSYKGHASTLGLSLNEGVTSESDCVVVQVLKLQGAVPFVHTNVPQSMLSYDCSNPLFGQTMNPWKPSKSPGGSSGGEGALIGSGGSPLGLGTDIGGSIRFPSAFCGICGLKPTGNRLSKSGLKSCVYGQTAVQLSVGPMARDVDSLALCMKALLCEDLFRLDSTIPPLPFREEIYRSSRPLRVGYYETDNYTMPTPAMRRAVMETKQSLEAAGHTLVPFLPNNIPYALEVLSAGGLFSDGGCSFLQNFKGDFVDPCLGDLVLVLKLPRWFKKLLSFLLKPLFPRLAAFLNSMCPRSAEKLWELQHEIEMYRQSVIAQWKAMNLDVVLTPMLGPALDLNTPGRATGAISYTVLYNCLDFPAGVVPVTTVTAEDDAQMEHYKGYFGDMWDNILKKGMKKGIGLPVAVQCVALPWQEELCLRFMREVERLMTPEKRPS
Procedure: as §1
Accordingly, when the compounds were tested for their capability of inhibiting [^14C] […] This is in agreement with previous observations that Me-AEA, DMH-derivatives of AEA and arvanil are poor substrates for FAAH. The two exceptions were O-1856 and O-1895, which did inhibit the hydrolysis of [^14C] AEA, although not very potently.

CB1 receptors = CB1 receptors (Rattus norvegicus, UniProt P20272); assay: CB1 receptor binding, displacement of [3H]CP-55,940 from rat brain P2 membranes (Example 2); parameters: from tissue; host or cells: whole rat brain membranes; conditions: for Ki: rat brain membranes
Procedure: as §2, §3

mice = assay: Mouse 'tetrad' of tests after i.v. administration (Example 2); conditions: for ED50: Mus musculus, iv
AMT = assay type: cell-based, rat; conditions: RBL-2H3 cells; read-out: AMT IC50
Procedure: AEA. Cells were incubated with [^14C] AEA for 5 min at 37° C., in the presence or absence of varying concentrations of the inhibitors. Residual [^14C] AEA in the incubation media after extraction with CHCl3/CH3OH 2:1 (by vol.), determined by scintillation counting of the lyophilized organic phase, was used as a measure of the AEA that was taken up by cells.
CP55940 from whole rat brain membranes.

[3] = VR1 (EC50, nM), Ca2+ in HEK cells with human VR1
[4] = CB1 (Ki, nM), determined in the presence of PMSF, [3H]CP 55,940, PMSF 100 μM
[5] = CB1 (Ki, nM), [3H]CP 55,940, without PMSF
[6] = read-out: Average ED50 for the four effects
[7] = read-out: R.T. (rectal temperature) ED50
[8] = read-out: S.A. (spontaneous activity) ED50
[9] = read-out: T.F. (tail-flick) ED50
[10] = read-out: R.I. (relative immobility) ED50
[11] = VR1 EC50, HEK cells with human VR1

Sequence of human VR1 receptor (Q8NER1 whole entry): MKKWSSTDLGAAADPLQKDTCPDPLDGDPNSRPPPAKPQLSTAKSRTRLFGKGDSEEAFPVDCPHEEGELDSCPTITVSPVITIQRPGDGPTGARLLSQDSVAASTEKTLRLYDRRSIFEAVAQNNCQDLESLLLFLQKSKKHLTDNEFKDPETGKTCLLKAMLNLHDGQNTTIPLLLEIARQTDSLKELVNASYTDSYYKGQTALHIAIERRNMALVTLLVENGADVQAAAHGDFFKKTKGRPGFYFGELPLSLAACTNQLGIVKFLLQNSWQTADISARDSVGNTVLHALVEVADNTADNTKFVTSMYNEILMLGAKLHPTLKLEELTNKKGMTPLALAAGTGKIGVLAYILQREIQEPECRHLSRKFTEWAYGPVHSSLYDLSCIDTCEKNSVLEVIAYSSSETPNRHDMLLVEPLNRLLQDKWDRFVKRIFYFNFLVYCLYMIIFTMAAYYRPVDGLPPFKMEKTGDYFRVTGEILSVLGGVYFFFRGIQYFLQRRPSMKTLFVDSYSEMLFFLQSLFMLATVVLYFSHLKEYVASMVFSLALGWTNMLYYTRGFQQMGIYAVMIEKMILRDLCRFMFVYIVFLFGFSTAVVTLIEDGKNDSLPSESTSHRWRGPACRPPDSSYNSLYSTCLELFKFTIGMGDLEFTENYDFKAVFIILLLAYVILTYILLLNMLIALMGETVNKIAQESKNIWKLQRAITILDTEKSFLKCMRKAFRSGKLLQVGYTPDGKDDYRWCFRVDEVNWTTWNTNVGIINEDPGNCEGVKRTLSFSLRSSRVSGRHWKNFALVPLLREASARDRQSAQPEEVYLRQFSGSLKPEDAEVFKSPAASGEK
Sequence of CB1 receptors (P20272 whole entry): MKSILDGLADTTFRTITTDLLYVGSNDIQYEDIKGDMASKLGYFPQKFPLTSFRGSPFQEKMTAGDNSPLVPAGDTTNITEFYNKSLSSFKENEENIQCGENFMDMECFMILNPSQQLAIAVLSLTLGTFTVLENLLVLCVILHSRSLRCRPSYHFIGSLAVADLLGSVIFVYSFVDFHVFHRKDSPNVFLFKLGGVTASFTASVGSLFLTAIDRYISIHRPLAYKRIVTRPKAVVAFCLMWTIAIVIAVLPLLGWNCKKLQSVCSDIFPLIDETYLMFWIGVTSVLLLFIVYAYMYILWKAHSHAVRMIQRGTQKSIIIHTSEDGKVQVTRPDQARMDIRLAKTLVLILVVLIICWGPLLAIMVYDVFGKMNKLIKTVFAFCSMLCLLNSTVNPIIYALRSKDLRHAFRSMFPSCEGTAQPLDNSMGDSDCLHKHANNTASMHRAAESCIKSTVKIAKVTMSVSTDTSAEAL

SMILES	IC50 [1]	Ki (CB2 receptors)	EC50 (human VR1 receptor; [3])	VR1 efficacy (human VR1 receptor)	IC50 [2]	Ki (CB1 receptors; [4])	Ki (CB1 receptors; [5])	ED50 (mice; [6])	ED50 (mice; [7])	ED50 (mice; [8])	ED50 (mice; [9])	ED50 (mice; [10])	other results
CCCCCCC(C)(C)/C=C\C/C=C\C/C=C\C/C=C\CCCC(=O)NCc1ccc(O)c(OC)c1 [Compound O-1839, 16,16-Dimethyl-docosa-5,8,11,14-all-cis-tetraenoic acid (4-hydroxy-3-methoxy-benzyl) amide]	19300 ± 2300 nM	> 10000 nM	0.7 ± 0.08 nM	71.9 ± 4.5%	> 50000 nM	201 ± 4.1 nM	262 nM	0.078 mg/kg	0.08 mg/kg	0.08 mg/kg	0.074 mg/kg		
COc1cc(CNC(=O)CCC/C=C\C/C=C\C/C=C\C/C=C\C(C)(C)CCCCC#N)ccc1O [Compound O-1895, 20-Cyano-16,16-dimethyl-eicosa-5,8,11,14-all-cis-tetraenoic acid (4-hydroxy-3-methoxy-benzyl) amide]	38400 ± 3100 nM	5000 ± 850 nM	1 ± 0.2 nM	83.1 ± 6.1%	18000 ± 2700 nM	44.8 ± 8.3 nM	67 ± 7.5 nM	0.219 mg/kg	0.179 mg/kg	0.265 mg/kg	0.263 mg/kg	0.168 mg/kg	
COc1cc(CNC(=O)CCC/C=C\C/C=C\C/C=C\C/C=C\C(C)(C)CCCCO)ccc1O [Compound O-1856, 16,16-Dimethyl-20-hydroxy-eicosa-5,8,11,14-all-cis-tetraenoic acid (4-hydroxy-3-methoxy-benzyl) amide]	42000 nM	> 10000 nM	5 ± 0.7 nM	83.9 ± 5.1%	14500 ± 3400 nM	1070 ± 134 nM	790 nM	0.873 mg/kg	1.45 mg/kg	0.47 mg/kg	0.81 mg/kg	0.76 mg/kg	IC50 ([1]; listed as 0-1856): 40000 ± 3800 nM
C[C@H](CO)NC(=O)CCC/C=C\C/C=C\C/C=C\C/C=C\C(C)(C)CCCCO [Compound O-1811, (R)-(16,16-Dimethyl-20-hydroxyeicosa-cis-5,8,11,14-tetraenoyl)-1′-hydroxy-2′-propylamine]	42500 ± 3300 nM			62.5 ± 0.8%				0.773 mg/kg	0.188 mg/kg	0.996 mg/kg	1.24 mg/kg	0.663 mg/kg	Ki (CB2 receptors; rat spleen membranes, read-out: CB2 (Ki)): 800 ± 150 nM; EC50 (human VR1 receptor; Ca2+ in HEK cells with human VR1, read-out: VR1 (EC50)): 724 ± 99 nM; IC50 ([2]; [14C]AEA hydrolysis, N18TG2 cell membranes, read-out: FAAH (IC50)): > 50000 nM; Ki (CB1 receptors; [3H]CP 55,940, PMSF 100 μM, read-out: CB1 (Ki, nM), determined in the presence of PMSF): 116 ± 11.1 nM; Ki (CB1 receptors; [3H]CP 55,940, without PMSF, read-out: CB1 (Ki)): 115 ± 25.2 nM; fold more potent in reducing body temperature than in increasing tail-flick latency (mice; mice, i.v.): approximately 10 fold
C[C@H](CO)NC(=O)CCC/C=C\C/C=C\C/C=C\C/C=C\C(C)(C)CCCCC#N [Compound O-1812, (R)-(20-cyano-16,16-Dimethyleicosa-cis-5,8,11,14-tetraenoyl)-1′-hydroxy-2′-propylamine]	37000 ± 4500 nM	3870 ± 235 nM	1950 ± 184 nM	50.0%	> 50000 nM	4.6 ± 0.4 nM	3.4 ± 0.5 nM	0.025 mg/kg	0.05 mg/kg	0.017 mg/kg	0.014 mg/kg	0.017 mg/kg	EC50 (human VR1 receptor; [11]): 1900 nM; VR1 efficacy (human VR1 receptor; listed as 0-1812): 50.0 ± 1.6%; fold more potent on CB1 than on CB2 (CB1 receptors): 1000 fold; fold more potent on CB1 than on VR1 (CB1 receptors): 580 fold
CCCCC/C=C\C/C=C\C/C=C\C/C=C\CCCC(=O)Nc1ccc(O)cc1 [AM404, reference compound]	8100 nM												IC50 (AMT): 8100 ± 2600 nM
C[C@H](CO)NC(=O)CCC/C=C\C/C=C\C/C=C\C/C=C\C(C)(C)CCCCBr [Compound O-1860, (R)-(20-Bromo-16,16-Dimethyleicosa-cis-5,8,11,14-tetraenoyl)-1′-hydroxy-2′-propylamine]	40000 ± 4500 nM	> 10000 nM	371 ± 34 nM	50.0%	> 50000 nM	1 ± 0.1 nM	2.2 nM	0.388 mg/kg	0.44 mg/kg	0.39 mg/kg	0.29 mg/kg	0.43 mg/kg	EC50 (human VR1 receptor; [11]): 370 nM; VR1 efficacy (human VR1 receptor; listed as 0-1860): 62.1 ± 5.7%
